This note sets out measurements from PMC7830771 (Molecular cancer therapeutics, 2017).

pEC50: −log10 of the molar value.

Assay [1] concerns the target ABCB1 (P-glycoprotein, MDR1) (Homo sapiens, UniProt P08183). The assay is described as follows: vanadate-sensitive ATPase assay, crude membranes of High Five cells. Format: biochemical.
Assay [2] has as its target T1, ABCC10 (MRP7) (Homo sapiens, UniProt Q5T3U5).
T1 sequence (Q5T3U5 1-1492): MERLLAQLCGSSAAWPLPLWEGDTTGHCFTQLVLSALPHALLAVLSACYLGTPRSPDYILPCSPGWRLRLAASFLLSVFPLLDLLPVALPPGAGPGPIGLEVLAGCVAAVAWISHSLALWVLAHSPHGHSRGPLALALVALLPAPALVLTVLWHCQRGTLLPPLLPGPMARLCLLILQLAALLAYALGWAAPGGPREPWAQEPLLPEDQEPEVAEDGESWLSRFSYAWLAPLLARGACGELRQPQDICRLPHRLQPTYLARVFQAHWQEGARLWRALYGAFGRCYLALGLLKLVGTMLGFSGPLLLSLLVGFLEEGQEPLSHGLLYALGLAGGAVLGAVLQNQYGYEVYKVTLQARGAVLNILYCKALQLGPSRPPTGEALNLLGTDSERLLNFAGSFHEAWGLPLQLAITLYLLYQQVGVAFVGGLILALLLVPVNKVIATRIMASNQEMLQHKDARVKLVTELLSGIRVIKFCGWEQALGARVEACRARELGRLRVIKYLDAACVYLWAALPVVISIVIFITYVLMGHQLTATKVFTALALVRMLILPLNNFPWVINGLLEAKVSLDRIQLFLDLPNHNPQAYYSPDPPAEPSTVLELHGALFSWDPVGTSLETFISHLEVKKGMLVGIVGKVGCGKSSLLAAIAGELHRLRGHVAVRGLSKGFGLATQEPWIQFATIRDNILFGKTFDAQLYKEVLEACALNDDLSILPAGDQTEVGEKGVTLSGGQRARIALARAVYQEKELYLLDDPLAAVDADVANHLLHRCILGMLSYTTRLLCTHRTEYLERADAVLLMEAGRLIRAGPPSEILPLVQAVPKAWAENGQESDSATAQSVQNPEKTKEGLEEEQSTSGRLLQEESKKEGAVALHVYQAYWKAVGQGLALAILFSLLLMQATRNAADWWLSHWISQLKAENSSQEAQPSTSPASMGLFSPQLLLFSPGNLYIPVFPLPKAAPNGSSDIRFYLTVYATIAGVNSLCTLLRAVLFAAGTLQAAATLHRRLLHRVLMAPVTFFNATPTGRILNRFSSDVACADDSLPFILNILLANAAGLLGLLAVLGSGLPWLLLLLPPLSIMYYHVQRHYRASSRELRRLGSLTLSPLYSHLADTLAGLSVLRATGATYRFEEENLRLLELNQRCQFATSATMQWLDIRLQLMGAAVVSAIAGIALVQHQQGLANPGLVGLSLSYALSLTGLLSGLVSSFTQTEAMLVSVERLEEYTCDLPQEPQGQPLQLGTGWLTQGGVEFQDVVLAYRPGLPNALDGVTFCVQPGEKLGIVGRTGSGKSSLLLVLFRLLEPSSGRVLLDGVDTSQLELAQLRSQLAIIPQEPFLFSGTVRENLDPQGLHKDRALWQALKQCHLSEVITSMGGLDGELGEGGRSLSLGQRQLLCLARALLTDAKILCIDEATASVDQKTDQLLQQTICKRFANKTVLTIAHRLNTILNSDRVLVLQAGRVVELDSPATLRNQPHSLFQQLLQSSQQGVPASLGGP
The assay is described as follows: [3H]-paclitaxel efflux, HEK293/ABCC10 versus HEK293/pcDNA3.[…] cells. It counts as cell-based. To be noted: labelled compound; 0.1 μmol/L; 37°C.

ABCB1 (P-glycoprotein, MDR1), sequence (P08183 whole entry): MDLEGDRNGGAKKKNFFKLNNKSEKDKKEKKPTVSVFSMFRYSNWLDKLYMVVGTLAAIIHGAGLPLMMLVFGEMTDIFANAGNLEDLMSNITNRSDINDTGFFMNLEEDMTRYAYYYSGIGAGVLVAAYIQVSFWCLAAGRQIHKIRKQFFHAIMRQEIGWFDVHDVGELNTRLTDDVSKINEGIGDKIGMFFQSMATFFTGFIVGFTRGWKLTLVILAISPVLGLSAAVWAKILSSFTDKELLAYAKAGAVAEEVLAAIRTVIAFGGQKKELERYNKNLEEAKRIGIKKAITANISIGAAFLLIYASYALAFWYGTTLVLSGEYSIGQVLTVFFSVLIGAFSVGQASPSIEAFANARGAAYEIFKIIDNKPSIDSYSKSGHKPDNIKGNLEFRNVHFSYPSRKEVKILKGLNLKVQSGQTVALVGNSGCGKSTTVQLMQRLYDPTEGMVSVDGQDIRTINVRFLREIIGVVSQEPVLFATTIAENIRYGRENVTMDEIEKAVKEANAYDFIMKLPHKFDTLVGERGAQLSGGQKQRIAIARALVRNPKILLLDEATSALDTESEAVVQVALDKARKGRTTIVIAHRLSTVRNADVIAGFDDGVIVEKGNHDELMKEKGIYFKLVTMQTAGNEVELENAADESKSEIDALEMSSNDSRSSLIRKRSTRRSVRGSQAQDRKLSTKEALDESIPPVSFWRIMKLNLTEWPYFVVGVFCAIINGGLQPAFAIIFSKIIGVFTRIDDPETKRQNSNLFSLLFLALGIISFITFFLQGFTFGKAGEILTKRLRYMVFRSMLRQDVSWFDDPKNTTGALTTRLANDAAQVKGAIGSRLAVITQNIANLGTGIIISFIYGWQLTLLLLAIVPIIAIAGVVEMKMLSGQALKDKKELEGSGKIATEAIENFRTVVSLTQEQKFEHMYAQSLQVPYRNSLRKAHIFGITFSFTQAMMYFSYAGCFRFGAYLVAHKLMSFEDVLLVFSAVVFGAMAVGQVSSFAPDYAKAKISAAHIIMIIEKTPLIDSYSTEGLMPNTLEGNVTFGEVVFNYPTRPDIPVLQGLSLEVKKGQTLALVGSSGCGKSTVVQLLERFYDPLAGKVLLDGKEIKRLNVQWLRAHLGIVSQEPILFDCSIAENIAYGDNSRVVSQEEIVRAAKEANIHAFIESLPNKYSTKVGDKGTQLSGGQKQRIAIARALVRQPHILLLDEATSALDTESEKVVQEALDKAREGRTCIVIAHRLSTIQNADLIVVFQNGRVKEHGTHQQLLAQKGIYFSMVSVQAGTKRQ

`C=CC(=O)N1CCC[C@@H](n2nc(-c3ccc(Oc4ccccc4)cc3)c3c(N)ncnc32)C1` [ibrutinib]: in assay [1], the pEC50 (commonly −log10 of the EC50, conventionally taken in molar units) was 6.19.

For the molecule `CC(=O)O[C@H]1C(=O)[C@@]2(C)[C@H]([C@H](OC(=O)c3ccccc3)[C@]3(O)C[C@H](OC(=O)[C@H](O)[C@@H](NC(=O)c4ccccc4)c4ccccc4)C(C)=C1C3(C)C)[C@]1(OC(C)=O)CO[C@@H]1C[C@@H]2O` [paclitaxel], the “[3H]-paclitaxel efflux, HEK293/ABCC10 versus HEK293/pcDNA3.1 cells” value in assay [2] is “KB-C2 and HEK293/ABCC10 cells efflux more [^3H]-paclitaxel out of the cells”.
